In the OligoGym collection:
These antisense oligonucleotides have a phosphorothioate backbone; sugars and methylation of C are not fully specified.

These sequences were tested against MAP2K6. Conditions: ASO.
Further: test concentration or dose not given here.

Point of comparison: GTGAATTGCCAAATAGACAC, remaining target (mRNA or protein) (fraction of control) 0.8. Against it:
- TATTTTCCCTGTCAATTACT — higher, 0.99
- CTTGCCTTTCGACTGAGACA — lower, 0.58
- CCCTAAAAGATGTGGTGATC — higher, ≥ 1
- CCTTTCGACTGAGACATTTT — higher, ≥ 1
- TCGACTGAGACATTTTCCCC — the same, 0.8
- TTGGAGTCTAAATCTCTAGG — higher, ≥ 1
- TATCAAAGAATTACTCACTA — higher, 0.85
- GTTTCTGTTCCTGGCTATTT — lower, 0.79
- GATGCATATTAAATAATTTC — higher, 0.83
- TCTGTAGCTAGTTTTGCAAC — higher, 0.88
- AGAAGAAAACAAACAAACAA — higher, 0.82

What follows are sequences tested against RHOC. Conditions: ASO.

Point of comparison: AGGCACCATCCCCAACGA, remaining target (mRNA or protein) (fraction of control) 0.19. Against it:
- CCCCTCCGACGCTTGTTC — higher, 0.34
- TTGCTGAAGACGATGAGG — higher, 0.77
- GAGCTGAGATGAAGTCAA — higher, 0.71
- AGACACTTTCCTGTGAGC — higher, 0.31
- CACTTTCCTGTGAGCCAG — lower, 0.18
- CAGACCGAACGGGCTCCT — higher, 0.35
- TGCAGAAACAACTCCAGG — higher, ≥ 1
- GGCACCATCCCCAACGAT — the same, 0.19
- TCGTCTTGCCTCAGGTCC — higher, 0.21
- CTCCTGGTGTGCTCGTCT — higher, 0.33
- GGAAGGGCAGGGCATAGG — higher, 0.79
- TTCTCAAAGACAGTAGGG — higher, 0.98
- TAAAGTGCTGGTGTGTGA — higher, 0.61
- TCAAAGACAGTAGGGACG — higher, ≥ 1
- GTGTGCTCGTCTTGCCTC — higher, 0.33

The sequences below were run against ITGB3. Conditions: ASO.

In the case of AAGCGGGTCACCTGGTCA, the remaining target (mRNA or protein) (fraction of control) is reported as at least 1.

These sequences were tested against PCK2. Conditions: ASO.

Point of comparison: TGAGGCCGCTGAGATCCAAG, remaining target (mRNA or protein) (fraction of control) 0.67. Against it:
- CCAGTCGGGTCATAATACGC — higher, 0.74
- GGTGATGCCCAGGATCAGCA — higher, 0.78
- TCACGAACCTCCTGTTCCCA — lower, 0.6
- GGCAGATCCTGGTTGACCTG — higher, 0.81
- TCCAGCCTGGCAGTGCAGGC — higher, 0.75
- ACCAGGCGGGAGTGGTACCG — higher, 0.84
- AATGCCAGTGGGAAGCTGGC — higher, 0.88
- GTAGTGCCCGAAGTTGTAGC — higher, 0.77
- CTGCATGCAGCCTGGAAACC — higher, 0.83
- GCTACGGCATGATGGCCAGC — higher, 0.89
- CTTGCCCAGCAGGGAGTTGC — higher, ≥ 1
- TGCCTTCCCTATTCCCAGAT — higher, 0.82
- GCGTTGGGATTGGTGGTGGC — higher, 0.82
- GGGCCTCCCAGGCTGGGTCC — higher, ≥ 1
- CCCACAAACACCCCATGACG — lower, 0.35
- TCCATCACAGATGTGGATGC — higher, 0.87
- CACTTGACAAAGTCACCATC — higher, ≥ 1
- GGCCCGGAGTCGACCTTCAC — higher, 0.68
- TTTCCAGGGTTTGCCCAGCC — lower, 0.55
- AAGATGTTAGTTAATATCAA — higher, ≥ 1
- TTAAAATAGATAAGCATCTC — higher, ≥ 1
- AGGAACCGAGCGGAGCCGGG — higher, 0.68
- TTGCACGGCCACTGGCTCAC — higher, 0.94
- CCGGGCCAGCCGAGAGGCGA — higher, ≥ 1
- GGACAGTCTTTGTGGGAAGG — higher, ≥ 1
- CACCGTCTTGCTCTCTACTC — higher, 0.85
- TGATCTCCCGCTGGTCGGGC — higher, 0.73
- TGCGGCCATGGCACCTGGGC — lower, 0.55
- TGGGTGTCTCTCGGGCACTG — higher, 0.9
- GAGCTGCACCCCGATGCGGG — higher, ≥ 1
- TCGGATGAGGCCCTGCTGCT — higher, 0.86
- AGTACACGCCACCATCACTG — higher, 0.91
- TCACATTTTGTGCACACGTC — higher, 0.76
- TCACGCCGGAACCAGTTGAC — higher, ≥ 1
- CTTTGTGTTCTGCTGCAGCA — lower, 0.49
- GGCACTAGGGAAGGCGGCTG — higher, 0.84
- GAGCATTCTCCCCAAAGCCT — higher, 0.95
- GGCGGTACAATGCGGCCATG — higher, 0.81
- AGACTAGGCCTCAGGTCACA — higher, ≥ 1
